# PubChem BioAssay AID1259407 (Chemical Carcinogenesis Research Information System (CCRIS), 2018)
# The source made the active and inactive calls. The rule behind the calls is not given here.
# Tested on: CCRIS mutagenicity, Ames/micronucleus/aberration tests
# Test: CCRIS mutagenicity studies
# [1] = Test System: AMES SALMONELLA TYPHIMURIUM, Strain/Indicator: TA98, Metabolic Activation: RAT, LIVER, S-9, AROCLOR 1254, Method: STANDARD PLATE
# [2] = Test System: AMES SALMONELLA TYPHIMURIUM, Strain/Indicator: TA1537, Metabolic Activation: NONE, Method: STANDARD PLATE
# [3] = Test System: AMES SALMONELLA TYPHIMURIUM, Strain/Indicator: TA1538, Metabolic Activation: NONE, Method: STANDARD PLATE
# [4] = Test System: AMES SALMONELLA TYPHIMURIUM, Strain/Indicator: TA1538, Metabolic Activation: RAT, LIVER, S-9, AROCLOR 1254, Method: STANDARD PLATE
structure (smiles),measurement,setting,value
O=C(O)c1nn(Cc2ccc(Cl)cc2Cl)c2ccccc12,mutagenic call,"Test System: AMES SALMONELLA TYPHIMURIUM, Strain/Indicator: TA98, Metabolic Activation: NONE, Method: STANDARD PLATE",inactive; negative
same,mutagenic call,[1],inactive; negative
same,mutagenic call,"Test System: AMES SALMONELLA TYPHIMURIUM, Strain/Indicator: TA100, Metabolic Activation: NONE, Method: STANDARD PLATE",inactive; negative
same,mutagenic call,"Test System: AMES SALMONELLA TYPHIMURIUM, Strain/Indicator: TA100, Metabolic Activation: RAT, LIVER, S-9, AROCLOR 1254, Method: STANDARD PLATE",inactive; negative
same,mutagenic call,"Test System: AMES SALMONELLA TYPHIMURIUM, Strain/Indicator: TA1535, Metabolic Activation: NONE, Method: STANDARD PLATE",inactive; negative
same,mutagenic call,"Test System: AMES SALMONELLA TYPHIMURIUM, Strain/Indicator: TA1535, Metabolic Activation: RAT, LIVER, S-9, AROCLOR 1254, Method: STANDARD PLATE",inactive; negative
same,mutagenic call,[2],inactive; negative
same,mutagenic call,"Test System: AMES SALMONELLA TYPHIMURIUM, Strain/Indicator: TA1537, Metabolic Activation: RAT, LIVER, S-9, AROCLOR 1254, Method: STANDARD PLATE",inactive; negative
same,mutagenic call,[3],inactive; negative
same,mutagenic call,[4],inactive; negative
same,mutagenic call,"Test System: CHINESE HAMSTER OVARY, Strain/Indicator: CHO-K1-BH4 (HPRT), Metabolic Activation: NONE",inactive; negative
same,mutagenic call,"Test System: CHINESE HAMSTER OVARY, Strain/Indicator: CHO-K1-BH4 (HPRT), Metabolic Activation: RAT, LIVER, S-9, AROCLOR 1254",inactive; negative
COc1cc2nc3occc3c(OC)c2cc1OC,mutagenic call,"Test System: AMES SALMONELLA TYPHIMURIUM, Strain/Indicator: TA98, Metabolic Activation: RAT, LIVER, S-9, PHENOBARBITAL, Method: STANDARD PLATE",active; positive
same,mutagenic call,"Test System: AMES SALMONELLA TYPHIMURIUM, Strain/Indicator: TA100, Metabolic Activation: RAT, LIVER, S-9, PHENOBARBITAL, Method: STANDARD PLATE",active; positive
CC(=O)Nc1cc2c(cc1Cl)-c1ccccc1C2,mutagenic call,[1],active; positive
CN(C)CCNC(=O)c1cccn2c(=O)c3ccccc3nc12,mutagenic call,[2],active; positive
C=CCN(CC=C)CC=C,mutagenic call,"Test System: AMES SALMONELLA TYPHIMURIUM, Strain/Indicator: TA98, Metabolic Activation: HAMSTER, LIVER, S-9, AROCLOR 1254 (10%), Method: PREINCUBATION",inactive; negative
same,mutagenic call,"Test System: AMES SALMONELLA TYPHIMURIUM, Strain/Indicator: TA98, Metabolic Activation: NONE, Method: PREINCUBATION",inactive; negative
same,mutagenic call,"Test System: AMES SALMONELLA TYPHIMURIUM, Strain/Indicator: TA98, Metabolic Activation: RAT, LIVER, S-9, AROCLOR 1254 (10%), Method: PREINCUBATION",inactive; negative
same,mutagenic call,"Test System: AMES SALMONELLA TYPHIMURIUM, Strain/Indicator: TA100, Metabolic Activation: HAMSTER, LIVER, S-9, AROCLOR 1254 (10%), Method: PREINCUBATION",inactive; negative
same,mutagenic call,"Test System: AMES SALMONELLA TYPHIMURIUM, Strain/Indicator: TA100, Metabolic Activation: NONE, Method: PREINCUBATION",inactive; negative
same,mutagenic call,"Test System: AMES SALMONELLA TYPHIMURIUM, Strain/Indicator: TA100, Metabolic Activation: RAT, LIVER, S-9, AROCLOR 1254 (10%), Method: PREINCUBATION",inactive; negative
same,mutagenic call,"Test System: AMES SALMONELLA TYPHIMURIUM, Strain/Indicator: TA1535, Metabolic Activation: HAMSTER, LIVER, S-9, AROCLOR 1254 (10%), Method: PREINCUBATION",inactive; negative
same,mutagenic call,"Test System: AMES SALMONELLA TYPHIMURIUM, Strain/Indicator: TA1535, Metabolic Activation: NONE, Method: PREINCUBATION",inactive; negative
same,mutagenic call,"Test System: AMES SALMONELLA TYPHIMURIUM, Strain/Indicator: TA1535, Metabolic Activation: RAT, LIVER, S-9, AROCLOR 1254 (10%), Method: PREINCUBATION",inactive; negative
same,mutagenic call,"Test System: AMES SALMONELLA TYPHIMURIUM, Strain/Indicator: TA1537, Metabolic Activation: HAMSTER, LIVER, S-9, AROCLOR 1254 (10%), Method: PREINCUBATION",inactive; negative
same,mutagenic call,"Test System: AMES SALMONELLA TYPHIMURIUM, Strain/Indicator: TA1537, Metabolic Activation: NONE, Method: PREINCUBATION",inactive; negative
same,mutagenic call,"Test System: AMES SALMONELLA TYPHIMURIUM, Strain/Indicator: TA1537, Metabolic Activation: RAT, LIVER, S-9, AROCLOR 1254 (10%), Method: PREINCUBATION",inactive; negative
CC1=C(C)C2(C3=CC(=O)C=CC3=Nc3ccc(O)cc32)C(C)=C(C)C1=O,mutagenic call,[3],inactive; negative
same,mutagenic call,[4],inactive; negative
